The supplement of paper PMC13207355
Counter-ions that a name gives are not always drawn.

Columns and labels:
Conditions in all cases: exposure time: 72 h
[1] = tested on: FT3469 (normal neural stem cell line); experiment: phenotypic distance (Euclidean, principal components) from DMSO controls (arbitrary units); higher = stronger morphological change
[2] = tested on: E31 (patient-derived glioblastoma stem cells of proneural subtype); experiment: as above
[3] = tested on: E13 (patient-derived glioblastoma stem cells of classical subtype); experiment: as above
[4] = tested on: E34 (patient-derived glioblastoma stem cells of proneural subtype); experiment: as above
[5] = tested on: E21 (patient-derived glioblastoma stem cells of mesenchymal subtype); experiment: as above
[6] = tested on: E28 (patient-derived glioblastoma stem cells of classical subtype); experiment: as above
[7] = tested on: E57 (patient-derived glioblastoma stem cells of mesenchymal subtype); experiment: as above
[8] = tested on: FT3469; experiment: surviving fraction (nuclei count normalised to DMSO); higher = more cells surviving (less toxic)
[9] = tested on: E31; experiment: as above
[10] = tested on: E13; experiment: as above
[11] = tested on: E34; experiment: as above
[12] = tested on: E21; experiment: as above
[13] = tested on: E28; experiment: as above
[14] = tested on: E57; experiment: as above
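For phenotypic distance (Euclidean, principal components) from DMSO controls in this document: cell Painting imaging in 384-well plates, CellProfiler features reduced to at least 20 principal components, Euclidean distance versus same-plate DMSO vehicle wells (0.1% v/v), median over six images per well.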
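For surviving fraction (nuclei count normalised to DMSO) in this document: nuclei counted by high-content imaging of Hoechst-stained cells in laminin-coated 384-well plates, relative to 0.1% DMSO vehicle wells, with staurosporine as cell-death control.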

CN[C@@H]1[C@@H](O)[C@@H](O[C@@H]2[C@@H](O)[C@H](O[C@H]3OC(CN)=CC[C@H]3N)[C@@H](N)C[C@H]2N)OC[C@]1(C)O [Sisomicin sulfate]
Conditions | phenotypic distance | surviving fraction
[1], 4.1 nM | 0.895 | –
[1], 12.3 nM | 0.713 | –
[1], 37 nM | 0.549 | –
[1], 111.1 nM | 0.66 | –
[1], 333.3 nM | 0.495 | –
[1], 1000 nM | 0.637 | –
[1], 3000 nM | 0.793 | –
[2], 4.1 nM | 0.521 | –
[2], 12.3 nM | 0.711 | –
[2], 37 nM | 0.705 | –
[2], 111.1 nM | 0.391 | –
[2], 333.3 nM | 0.642 | –
[2], 1000 nM | 0.692 | –
[2], 3000 nM | 0.63 | –
[3], 4.1 nM | 0.369 | –
[3], 12.3 nM | 0.462 | –
[3], 37 nM | 0.472 | –
[3], 111.1 nM | 0.486 | –
[3], 333.3 nM | 0.393 | –
[3], 1000 nM | 0.501 | –
[3], 3000 nM | 0.645 | –
[4], 4.1 nM | 1.06 | –
[4], 12.3 nM | 0.852 | –
[4], 37 nM | 0.946 | –
[4], 111.1 nM | 0.273 | –
[4], 333.3 nM | 2.48 | –
[4], 1000 nM | 3.23 | –
[4], 3000 nM | 0.712 | –
[5], 4.1 nM | 0.673 | –
[5], 12.3 nM | 0.75 | –
[5], 37 nM | 0.611 | –
[5], 111.1 nM | 0.334 | –
[5], 333.3 nM | 0.705 | –
[5], 1000 nM | 0.424 | –
[5], 3000 nM | 1.26 | –
[6], 4.1 nM | 0.802 | –
[6], 12.3 nM | 0.276 | –
[6], 37 nM | 0.807 | –
[6], 111.1 nM | 0.454 | –
[6], 333.3 nM | 0.891 | –
[6], 1000 nM | 0.259 | –
[6], 3000 nM | 0.736 | –
[7], 4.1 nM | 0.637 | –
[7], 12.3 nM | 0.658 | –
[7], 37 nM | 0.794 | –
[7], 111.1 nM | 0.322 | –
[7], 333.3 nM | 0.595 | –
[7], 1000 nM | 0.802 | –
[7], 3000 nM | 0.686 | –
[8], 4.1 nM | – | 0.936
[8], 12.3 nM | – | 1.08
[8], 37 nM | – | 1.04
[8], 111.1 nM | – | 0.924
[8], 333.3 nM | – | 1.08
[8], 1000 nM | – | 1.08
[8], 3000 nM | – | 1.02
[9], 4.1 nM | – | 0.953
[9], 12.3 nM | – | 0.893
[9], 37 nM | – | 0.996
[9], 111.1 nM | – | 0.985
[9], 333.3 nM | – | 0.92
[9], 1000 nM | – | 0.979
[9], 3000 nM | – | 0.914
[10], 4.1 nM | – | 1.01
[10], 12.3 nM | – | 0.994
[10], 37 nM | – | 0.923
[10], 111.1 nM | – | 0.949
[10], 333.3 nM | – | 0.983
[10], 1000 nM | – | 1.1
[10], 3000 nM | – | 0.959
[11], 4.1 nM | – | 0.838
[11], 12.3 nM | – | 0.957
[11], 37 nM | – | 0.811
[11], 111.1 nM | – | 0.957
[11], 333.3 nM | – | 0.867
[11], 1000 nM | – | 0.88
[11], 3000 nM | – | 0.901
[12], 4.1 nM | – | 0.929
[12], 12.3 nM | – | 1.06
[12], 37 nM | – | 0.919
[12], 111.1 nM | – | 0.966
[12], 333.3 nM | – | 1.03
[12], 1000 nM | – | 0.992
[12], 3000 nM | – | 0.864
[13], 4.1 nM | – | 0.849
[13], 12.3 nM | – | 0.982
[13], 37 nM | – | 0.892
[13], 111.1 nM | – | 0.985
[13], 333.3 nM | – | 0.937
[13], 1000 nM | – | 0.984
[13], 3000 nM | – | 0.902
[14], 4.1 nM | – | 0.973
[14], 12.3 nM | – | 0.964
[14], 37 nM | – | 0.884
[14], 111.1 nM | – | 0.95
[14], 333.3 nM | – | 0.927
[14], 1000 nM | – | 0.919
[14], 3000 nM | – | 0.966

O=[N+]([O-])c1ccc2c(c1)S(=O)(=O)C=C2 [Stattic]
Conditions | phenotypic distance | surviving fraction
[1], 4.11523 nM | 1.08 | –
[1], 12.34567901 nM | 1.39 | –
[1], 37.037 nM | 0.934 | –
[1], 111.1111111 nM | 1.86 | –
[1], 333.333 nM | 1.92 | –
[1], 1000 nM | 8.18 | –
[1], 3000 nM | 12.6 | –
[2], 4.11523 nM | 0.51 | –
[2], 12.34567901 nM | 0.69 | –
[2], 37.037 nM | 0.645 | –
[2], 111.1111111 nM | 1.51 | –
[2], 333.333 nM | 3.02 | –
[2], 1000 nM | 11.5 | –
[2], 3000 nM | 12.4 | –
[3], 4.11523 nM | 0.979 | –
[3], 12.34567901 nM | 0.957 | –
[3], 37.037 nM | 0.849 | –
[3], 111.1111111 nM | 1.68 | –
[3], 333.333 nM | 3.33 | –
[3], 1000 nM | 8.57 | –
[3], 3000 nM | 12.1 | –
[4], 4.11523 nM | 0.778 | –
[4], 12.34567901 nM | 2.75 | –
[4], 37.037 nM | 1.33 | –
[4], 111.1111111 nM | 1.29 | –
[4], 333.333 nM | 1.83 | –
[4], 1000 nM | 6.7 | –
[4], 3000 nM | 11.7 | –
[5], 4.11523 nM | 1.03 | –
[5], 12.34567901 nM | 1.19 | –
[5], 37.037 nM | 0.697 | –
[5], 111.1111111 nM | 1.45 | –
[5], 333.333 nM | 2.92 | –
[5], 1000 nM | 11.2 | –
[5], 3000 nM | 10.4 | –
[6], 4.11523 nM | 0.371 | –
[6], 12.34567901 nM | 0.758 | –
[6], 37.037 nM | 0.541 | –
[6], 111.1111111 nM | 0.984 | –
[6], 333.333 nM | 1.97 | –
[6], 1000 nM | 7.45 | –
[6], 3000 nM | 19.2 | –
[7], 4.11523 nM | 1.16 | –
[7], 12.34567901 nM | 1.21 | –
[7], 37.037 nM | 0.778 | –
[7], 111.1111111 nM | 1.69 | –
[7], 333.333 nM | 2.66 | –
[7], 1000 nM | 6.04 | –
[7], 3000 nM | 6.85 | –
[8], 4.11523 nM | – | 0.815
[8], 12.34567901 nM | – | 0.831
[8], 37.037 nM | – | 0.86
[8], 111.1111111 nM | – | 0.73
[8], 333.333 nM | – | 0.627
[8], 1000 nM | – | 0.263
[8], 3000 nM | – | 0.0263
[9], 4.11523 nM | – | 0.993
[9], 12.34567901 nM | – | 0.809
[9], 37.037 nM | – | 0.852
[9], 111.1111111 nM | – | 0.608
[9], 333.333 nM | – | 0.395
[9], 1000 nM | – | 0.00296
[9], 3000 nM | – | 0.00296
[10], 4.11523 nM | – | 0.862
[10], 12.34567901 nM | – | 0.789
[10], 37.037 nM | – | 0.891
[10], 111.1111111 nM | – | 0.753
[10], 333.333 nM | – | 0.472
[10], 1000 nM | – | 0.0609
[10], 3000 nM | – | 0.0209
[11], 4.11523 nM | – | 0.907
[11], 12.34567901 nM | – | 0.804
[11], 37.037 nM | – | 0.719
[11], 111.1111111 nM | – | 0.708
[11], 333.333 nM | – | 0.568
[11], 1000 nM | – | 0.223
[11], 3000 nM | – | 0.00905
[12], 4.11523 nM | – | 0.828
[12], 12.34567901 nM | – | 0.855
[12], 37.037 nM | – | 0.849
[12], 111.1111111 nM | – | 0.728
[12], 333.333 nM | – | 0.517
[12], 1000 nM | – | 0.0242
[12], 3000 nM | – | 0.00527
[13], 4.11523 nM | – | 1.06
[13], 12.34567901 nM | – | 0.809
[13], 37.037 nM | – | 0.932
[13], 111.1111111 nM | – | 0.745
[13], 333.333 nM | – | 0.566
[13], 1000 nM | – | 0.0457
[13], 3000 nM | – | 0.00486
[14], 4.11523 nM | – | 0.876
[14], 12.34567901 nM | – | 0.843
[14], 37.037 nM | – | 0.926
[14], 111.1111111 nM | – | 0.848
[14], 333.333 nM | – | 0.631
[14], 1000 nM | – | 0.166
[14], 3000 nM | – | 0.0847
